According to ChEMBL document CHEMBL1156774, “Design of O-acetylserine sulfhydrylase inhibitors by mimicking nature” (J Med Chem, 2010):
pKd: −log10 of the molar value.

How the values were obtained:
[1] = target: T1, Cysteine synthase (Haemophilus influenzae (strain ATCC 51907 / DSM 11121 / KW20 / Rd)) (UniProt P45040); test: (§1) Binding affinity to Haemophilus influenzae O-acetylserine sulfhydrylase expressed in Escherichia coli BL21 (DE3) by fluorescence emission spectra analysis
T1 sequence (whole entry): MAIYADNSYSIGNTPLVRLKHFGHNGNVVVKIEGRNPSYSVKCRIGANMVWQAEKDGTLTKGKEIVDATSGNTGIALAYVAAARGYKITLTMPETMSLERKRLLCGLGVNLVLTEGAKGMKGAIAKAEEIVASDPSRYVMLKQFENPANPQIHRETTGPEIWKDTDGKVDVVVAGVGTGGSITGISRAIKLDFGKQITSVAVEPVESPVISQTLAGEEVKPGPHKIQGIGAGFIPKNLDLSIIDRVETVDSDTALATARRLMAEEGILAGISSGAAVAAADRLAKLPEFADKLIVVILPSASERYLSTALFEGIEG

Cysteine synthase = target: T2, Cysteine synthase (Haemophilus influenzae (strain ATCC 51907 / DSM 11121 / KW20 / Rd), UniProt P45040); test: as §1
T2 sequence (P45040 whole entry): T1 sequence (whole entry)

Substance | Kdiss [1] [µM] | pKd (Cysteine synthase)
H-MNDGI-OH | 1030 | 2.99
H-MNYSI-OH | 60.8 | 4.22
H-MNVPI-OH | 3330 | 2.48
H-MNLGI-OH | 570 | 3.24
H-MNEGI-OH | 2270 | 2.64
